According to US10358469B2, “Methods and pharmaceutical compositions for the treatment of cancer” (INSERM (INSTITUT NATIONAL DE LA SANTÉ ET DE LA RECHERCHE …, priority 2014, dated 2019):

Assays:
[1] = tested on: human triple-negative breast cancer xenograft PDX02; assay: Triple-negative breast cancer patient-derived xenograft PDX02 in nude mice; type: in vivo; conditions: 2.4 mg/kg i.p., 7 daily injections, FIG. 8B
Procedure: Breast cancer fragments were obtained from patients at the time of surgery, with informed written patient consent. After imaging-guided human tumor biopsies had been performed, fragments of 30 to 60 mm^3 were subcutaneously grafted in 6-week-old NMRI-nude mice (Centre-Elevage-Janvier, France), under xylasin (10 mg/kg)/ketamin (100 mg/kg) anesthesia. Mice were maintained in specific pathogen-free animal housing (Institut Universitaire d'Hematologie) and received estrogen (17 mg/mL) diluted in drinking water. Xenografts were characterized and subsequently subcutaneously transplanted from mouse to mouse. […] Two human triple-negative breast cancer (HBC) xenografts models were used in our experiments (PDX01 and PDX02). […] Following transplantation (n=6 per model) tumor growth was assessed by measuring tumor size in two dimension using a Vernier caliper. Tumor volume was calculated using the formula [3.14×long axis×short axis×short axis]/6 (Kjonniksen et al., 1989). […] Mice were weighted and the tumor size was measured by a caliper and recorded daily. Fourteen days after beginning of the treatment mice were sacrificed. The tumors, kidney, lungs, heart, liver, pancreas and spleen were taken and fixed. Paraffin-embedded sections were prepared and stained with hematoxylin and eosin for histological analysis.

solid tumor cell lines = assay: Cell viability (MTT) of an array of solid tumor cell lines under low serum; type: cell-based; conditions: increasing concentrations, 24 hours, low serum conditions, FIG. 1B
Procedure: (A) Karpas 1106, SU-DHL-5, SeAx and HUT-78 cells were plated at a densities of 6×10^3 in 96 well plates (100 μL total volume per well) and treated for 24 hours in a 37° C. incubator (5% CO2) with increasing concentrations of the Antp-AAC-11-LZ (363-399). 20 μL MTS reagent was then added to each well and plates were incubated for an additional 4 hours. Absorbance was measured at 490 nm using a 96-well plate reader. The extent to which the Antp-AAC-11-LZ (363-399) peptide inhibited cell proliferation was calculated as a percentage of the absorbance in each well containing the Antp-AAC-11-LZ (363-399) peptide relative to wells containing no peptide (negative control). […]
Viability of cells cultured in the 96-well culture plates was assessed by measuring mitochondrial dehydrogenase activity, using the colorimetric CellTiter 96® AQueous One Solution Cell Proliferation Assay (Promega), according to the manufacturer′ instructions. […] The color can then be quantified using a simple colorimetric assay. The results are read on a multiwall scanning spectrophotometer (ELISA reader).
The inventors evaluated the capacity of the Antp-AAC-11-LZ (363-399) peptide to induce cell death a panel of hematologic and solid tumor cell lines, both P53 positive and P53 negative, derived from different tissues of origin, under low serum conditions (0.5-5%). […]

In the case of “Ac-RQIKIWFKKQNRRMKWKKAKLNAEKLKDFKIRLQYFARGLQVYIRQLRLALQGKT-NH2 [Antp-AAC-11-LZ (363-399)]”, the “tumor size versus vehicle” value [1] is reported as “significantly smaller tumors” and the “cell viability loss of the cancer cell lines” value (solid tumor cell lines) is reported as “marked cell viability loss”.
